Test results taken from ChEMBL document CHEMBL1130291, “Synthesis of trimethylated phosphonium and arsonium analogues of the osmoprotectant glycine betaine; contrasted biological activities in two bacterial species” (Bioorg Med Chem Lett, 1997).
Calls of active or inactive are those of the source. The rule behind the calls is not given here.

Assays:
Assay type in all cases: functional, organism-based
Sinorhizobium meliloti [1] = experiment: Inhibition of the growth of Rhizobium meliloti was observed at 1 mM by inoculation of 0.5 M NaCl; No growth was observed
Escherichia coli [2] = experiment: Inhibitory activity against growth of Escherichia coli MC4100 in presence 0.8M NaCl; Strong inhibition
Escherichia coli [3] = experiment: Inhibitory activity against growth of Escherichia coli MC4100 without NaCl; No effect
Sinorhizobium meliloti [4] = experiment: Osmoprotective activity of compound in Rhizobium meliloti 102F34 by restoring its growth rate was evaluated; Highly toxic
Sinorhizobium meliloti [5] = experiment: Osmoprotective activity of compound in Rhizobium meliloti 102F34 by restoring its growth rate was evaluated; Highly osmoprotective

| Structure (SMILES) | Activity (Sinorhizobium meliloti [1]) | Activity (Escherichia coli [2]) | Activity (Escherichia coli [3]) | Activity (Sinorhizobium meliloti [4]) | Activity (Sinorhizobium meliloti [5]) |
| --- | --- | --- | --- | --- | --- |
| C[P+](C)(C)CC(=O)[O-] | No growth | No growth | inactive | Toxic |  |
| C[As+](C)(C)CC(=O)[O-] | No growth | No growth | inactive | Toxic |  |
| C[N+](C)(C)CC(=O)O |  | Highly osmoprotective | inactive |  | Highly osmoprotective |
